Results: ChEMBL document CHEMBL1128555, “Derivatives of 5-[[1-(4'-carboxybenzyl)imidazolyl]methylidene]hydantoins as orally active angiotensin II receptor antagonists” (J Med Chem, 1995)
The source made the active and inactive calls. The calls are words filed in the database; no cut-off is given here.

Experiments:
[1] = target: Angiotensin II receptor (AT-1) type-1 (Rattus norvegicus) (UniProt P29089+P25095); assay: Antihypertensive activity in renal hypertensive rats (RHR) at 30 mg/Kg dose after oral administration; assay type: functional, organism-based
[2] = target: Angiotensin II receptor type-1 (Oryctolagus cuniculus) (UniProt P34976); assay: Inhibition of angiotensin II induced contraction in rabbit aortic ring, activity is expressed as IC50
Rattus norvegicus [3] = assay: The compound was tested for antihypertensive activity in Renal Hypertensive Rats(RHR) at 10 mg/Kg dose after oral administration; assay type: functional
Monkey [4] = assay: Baseline blood pressure was determined at 10 mg/kg in salt-deplete Normotensive Monkeys; assay type: functional, Cercopithecidae
Monkey [5] = assay: blood pressure determined at 10 mg/kg in salt-deplete Normotensive Monkeys; assay type: functional, Cercopithecidae
Monkey [6] = assay: Minimum blood pressure was determined at 10 mg/kg in salt-deplete Normotensive Monkeys; assay type: functional, Cercopithecidae
[7] = target: T1, Angiotensin II receptor (AT-1) type-1 (Rattus norvegicus, UniProt P29089+P25095); assay: Binding affinity expressed as IC50 to the Angiotensin II receptor, type 1, from rat liver membrane
T1 sequence (P29089 whole entry): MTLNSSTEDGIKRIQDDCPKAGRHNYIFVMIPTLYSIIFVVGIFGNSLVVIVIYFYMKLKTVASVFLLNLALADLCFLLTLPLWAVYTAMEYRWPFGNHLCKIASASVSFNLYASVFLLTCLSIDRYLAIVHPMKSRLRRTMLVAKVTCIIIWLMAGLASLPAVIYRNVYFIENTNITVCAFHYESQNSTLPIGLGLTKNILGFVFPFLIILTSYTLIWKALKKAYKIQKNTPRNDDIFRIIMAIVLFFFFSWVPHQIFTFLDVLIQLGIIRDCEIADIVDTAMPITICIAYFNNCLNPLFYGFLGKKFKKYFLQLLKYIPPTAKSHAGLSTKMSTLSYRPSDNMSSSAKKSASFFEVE
T1 sequence (P25095 whole entry): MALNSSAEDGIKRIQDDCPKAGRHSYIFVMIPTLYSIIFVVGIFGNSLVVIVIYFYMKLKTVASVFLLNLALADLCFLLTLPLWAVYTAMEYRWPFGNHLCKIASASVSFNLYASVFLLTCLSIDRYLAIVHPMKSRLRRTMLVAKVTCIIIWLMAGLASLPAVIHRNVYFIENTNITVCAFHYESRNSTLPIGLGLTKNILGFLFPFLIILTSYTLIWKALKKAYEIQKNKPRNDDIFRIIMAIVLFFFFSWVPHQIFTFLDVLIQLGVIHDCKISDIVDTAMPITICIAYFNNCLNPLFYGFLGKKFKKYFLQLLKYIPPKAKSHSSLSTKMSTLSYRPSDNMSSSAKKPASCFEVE

Monkey [8] = assay: Blood pressure determined at 10 mg/kg in salt-deplete Normotensive Monkeys; assay type: functional, Cercopithecidae
Rattus norvegicus [9] = assay: The compound was tested for antihypertensive activity in Renal Hypertensive Rats(RHR) at following doses after oral administration. of 10 mg/kg; assay type: functional
Rattus norvegicus [10] = assay: The compound was tested for antihypertensive activity in Renal Hypertensive Rats(RHR) at 30 mg/Kg dose after oral administration; inactive; assay type: functional, organism-based

Angiotensin II receptor type-1 (Oryctolagus cuniculus), sequence (P34976 whole entry, looked up): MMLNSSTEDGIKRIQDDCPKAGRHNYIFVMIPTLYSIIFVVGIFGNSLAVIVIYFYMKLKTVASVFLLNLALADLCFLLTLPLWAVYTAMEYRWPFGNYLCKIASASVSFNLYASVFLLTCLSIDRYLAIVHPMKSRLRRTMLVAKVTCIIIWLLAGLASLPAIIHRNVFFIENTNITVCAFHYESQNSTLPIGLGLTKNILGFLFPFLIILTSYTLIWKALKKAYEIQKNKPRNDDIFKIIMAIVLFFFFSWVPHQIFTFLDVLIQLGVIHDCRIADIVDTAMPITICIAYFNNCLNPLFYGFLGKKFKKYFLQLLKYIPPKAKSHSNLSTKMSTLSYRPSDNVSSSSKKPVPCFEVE

SMILES | Maximum blood pressure change [1] | IC50 [2] | IC50 [7] | other results
CCCCc1ncc(/C=C2/C(=O)N(CCCC)C(=O)N2Cc2csc(C)n2)n1Cc1ccc(C(=O)OC)cc1 | -40% | 350 nM | 3.8 nM | Max (Rattus norvegicus [3]): -25%; Blood pressure (Monkey [4]): 101 mmHg; Blood pressure (Monkey [5]): 88 mmHg; Blood pressure (Monkey [6]): 74 mmHg
CCCCc1ncc(/C=C2/C(=O)N(CCCC)C(=O)N2CCCC)n1Cc1ccc(C(=O)O)cc1 | -45% | 14 nM | 1.3 nM | Max (Rattus norvegicus [3]): -21%
CCCCc1ncc(/C=C2/C(=O)N(CCCC)C(=O)N2Cc2csc(N)n2)n1Cc1ccc(C(=O)OC)cc1 | -37% | 290 nM | 1.2 nM | Max (Rattus norvegicus [3]): -39%
CCCCc1ncc(/C=C2/C(=O)N(CCCC)C(=O)N2Cc2csc(C)n2)n1Cc1ccc(C(=O)O)cc1Cl |  |  |  | Blood pressure (Monkey [4]): 100 mmHg; Blood pressure (Monkey [6]): 80 mmHg; Blood pressure (Monkey [8]): 85 mmHg
CCCCc1ncc(/C=C2/C(=O)N(CCCC)C(=O)N2CCCC)n1Cc1ccc(C(=O)OC)cc1 | -27% | 460 nM | 8.5 nM | 
CCCCc1ncc(/C=C2/C(=O)N(CCCC)C(=O)N2Cc2ccsc2)n1Cc1ccc(C(=O)O)cc1 | -42% | 10 nM | 0.9 nM | Max (Rattus norvegicus [9]): -28%
CCCCc1ncc(/C=C2/C(=O)NC(=O)N2CCCC)n1Cc1ccc(C(=O)OC)cc1 | -11% | 30 nM | 3.5 nM | 
CCCCc1ncc(/C=C2/C(=O)NC(=O)N2Cc2cccs2)n1Cc1ccc(C(=O)O)cc1 | -21% | 18 nM | 2.3 nM | 
CCCCc1ncc(/C=C2/C(=O)N(CCCC)C(=O)N2Cc2csc(C)c2)n1Cc1ccc(C(=O)O)cc1 | -23% | 9.2 nM | 0.7 nM | Max (Rattus norvegicus [9]): -28%
CCCCc1ncc(/C=C2/C(=O)N(CCCC)C(=O)N2Cc2csc(C)n2)n1Cc1ccc(C(=O)O)cc1 | -34% | 2.6 nM | 1.2 nM | 
CCCCc1ncc(/C=C2\C(=O)NC(=O)N2Cc2cccs2)n1Cc1ccc(C(=O)O)cc1 |  |  | 2.6 nM | Max (Rattus norvegicus [10]): inactive
CCCCc1ncc(/C=C2/C(=O)NC(=O)N2Cc2cccs2)n1Cc1ccc(C(=O)OC)cc1 | -19% | 28 nM | 7.1 nM | 
CCCCc1ncc(/C=C2/C(=O)NC(=O)N2CCCC)n1Cc1ccc(-c2nn[nH]n2)cc1 | 0% | 40 nM | 7.1 nM | 
CCCCc1ncc(/C=C2/C(=O)NC(=O)N2CCCC)n1Cc1ccc(C(=O)O)cc1 | -17% | 28 nM | 2.8 nM | 
CCCCc1ncc(/C=C2/C(=O)N(CCCC)C(=O)N2Cc2ccoc2)n1Cc1ccc(C(=O)OC)cc1 | -22% | > 100 nM | 8.3 nM | 
CCCCc1ncc(/C=C2\C(=O)NC(=O)N2CCCC)n1Cc1ccc(C(=O)O)cc1 |  | 44 nM |  | Max (Rattus norvegicus [10]): inactive
CCCCc1ncc(/C=C2/C(=O)N(CCCC)C(=O)N2Cc2ccno2)n1Cc1ccc(C(=O)OC)cc1 | -23% | > 100 nM | 10.1 nM | 
CCCCc1ncc(/C=C2/C(=O)N(CCCC)C(=O)N2Cc2cccs2)n1Cc1ccc(C(=O)O)cc1 | -28% | 13 nM | 0.7 nM | 
CCCCc1ncc(/C=C2/C(=O)N(CCCC)C(=O)N2Cc2cccs2)n1Cc1ccc(C(=O)OC)cc1 | -28% | 370 nM | 3.4 nM | 
CCCCCCN1C(=O)/C(=C/c2cnc(CCCC)n2Cc2ccc(C(=O)OC)cc2)N(Cc2csc(C)n2)C1=O | -34% | > 100 nM | 5.3 nM | 
CCCCc1ncc(/C=C2/C(=O)N(CCCC)C(=O)N2Cc2cc(C)cs2)n1Cc1ccc(C(=O)O)cc1 | -16% | 21 nM | 1.5 nM | 
